Results: article PMC4508061, “Selectivity Profiling and Biological Activity of Novel β-Carbolines as Potent and Selective DYRK1 Kinase Inhibitors” (PLoS ONE, 2015)
Like-named read-outs stand apart in the source and are kept apart here.

Columns and labels:
DYRK1A = target: T1, DYRK1A (Homo sapiens, UniProt Q13627); experiment: Kinase-GLO luminescent kinase assay; format: biochemical; conditions: 1 μM compound; means of at least 3 measurements
T1 construct: purchased ProQinase (Freiburg, Germany)
Experimental: (§1) Bacterial expression plasmids for GST-DYRK1A-ΔC and GST-DYRK2 have been described earlier. […] Expression in logarithmically growing E. coli culture was performed for 3 h at 37°C (GST-DYRK1A-ΔC and GST-DYRK2), 3 h at 26°C (GST-HIPK2cat), over night at 28°C (GST-CLK1cat) or over night at room temperature (GST-DYRK1Bcat).
(§2) Compounds were screened for inhibitory effects against GST-DYRK1A-ΔC, GST-DYRK1Bcat, GST-DYRK2, GST-CLK1cat or GST-HIPK2cat using the Kinase-GLO Luminescent Kinase Assay from Promega. Assays were performed in a total volume of 10 μL in kinase-buffer (25 mM Hepes pH 7.4, 0.5 mM DTT, 5 mM MgCl2, 5 μM ATP) with appropriate peptide substrates (20 μM DYRKtide for the DYRKs and 100 μM DYRKtide for HIPK2, […]; or 100 μM RS domain-derived peptide for CLK1, […]). Assays were started with this amount of a kinase preparation that consumed approximately 90% of the ATP in the assay (linear range of the kinase titration curve). The reactions were run at room temperature for 30 min before 10 μL Kinase-GLO reagent was added. After incubation at room temperature for additional 10 min, luminescence was recorded for 1 s.

DYRK2 = target: T2, DYRK2 (Homo sapiens, UniProt Q92630); experiment: Kinase-GLO luminescent kinase assay; format: biochemical; conditions: 1 μM compound; means of at least 3 measurements
T2 construct: purchased ProQinase (Freiburg, Germany)
T2 sequence (Q92630 1-601): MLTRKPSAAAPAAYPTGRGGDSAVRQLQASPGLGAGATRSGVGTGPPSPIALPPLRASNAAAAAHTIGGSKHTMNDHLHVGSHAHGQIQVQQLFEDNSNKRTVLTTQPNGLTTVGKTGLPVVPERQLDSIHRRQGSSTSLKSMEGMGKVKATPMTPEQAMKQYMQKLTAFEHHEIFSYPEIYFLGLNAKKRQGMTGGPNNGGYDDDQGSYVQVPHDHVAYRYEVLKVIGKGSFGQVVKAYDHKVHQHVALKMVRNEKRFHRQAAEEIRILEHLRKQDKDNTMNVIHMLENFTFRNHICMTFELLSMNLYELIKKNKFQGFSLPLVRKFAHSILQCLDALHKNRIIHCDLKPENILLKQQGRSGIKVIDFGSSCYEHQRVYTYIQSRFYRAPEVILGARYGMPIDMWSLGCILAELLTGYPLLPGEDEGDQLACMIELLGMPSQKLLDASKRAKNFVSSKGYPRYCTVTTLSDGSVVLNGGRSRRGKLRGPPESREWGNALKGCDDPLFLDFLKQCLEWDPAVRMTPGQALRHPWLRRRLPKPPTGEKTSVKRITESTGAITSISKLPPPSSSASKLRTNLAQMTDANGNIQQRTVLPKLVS
Experimental: as §1, §2

DYRK1B = DYRK1B (Homo sapiens, UniProt Q9Y463); experiment: Kinase-GLO luminescent kinase assay; format: biochemical; parameters: made in house; host or cells: E. coli; conditions: 1 μM compound; means of at least 3 measurements
Experimental: as §1, §2

HIPK2 = HIPK2 (Homo sapiens, UniProt Q9H2X6); experiment: Kinase-GLO luminescent kinase assay; format: biochemical; parameters: made in house; host or cells: E. coli; conditions: 10 μM compound; means of at least 3 measurements
Experimental: as §1, §2

CLK1 = CLK1 (Homo sapiens, UniProt P49759); experiment: Kinase-GLO luminescent kinase assay; format: biochemical; parameters: made in house; host or cells: E. coli; conditions: 1 μM compound; means of at least 3 measurements
Experimental: as §1, §2

Cell viability XTT assay [1] = format: cell-based; conditions: human, HeLa cells, read-out: Viability of treated cells relative to untreated control
Cell viability XTT assay [2] = format: cell-based; conditions: human, SH-SY5Y cells, read-out: Viability of treated cells relative to untreated control
Cell viability XTT assay [3] = format: cell-based; conditions: rat, PC12 cells, read-out: Viability of treated cells relative to untreated control

HIPK2, sequence (Q9H2X6 180-533): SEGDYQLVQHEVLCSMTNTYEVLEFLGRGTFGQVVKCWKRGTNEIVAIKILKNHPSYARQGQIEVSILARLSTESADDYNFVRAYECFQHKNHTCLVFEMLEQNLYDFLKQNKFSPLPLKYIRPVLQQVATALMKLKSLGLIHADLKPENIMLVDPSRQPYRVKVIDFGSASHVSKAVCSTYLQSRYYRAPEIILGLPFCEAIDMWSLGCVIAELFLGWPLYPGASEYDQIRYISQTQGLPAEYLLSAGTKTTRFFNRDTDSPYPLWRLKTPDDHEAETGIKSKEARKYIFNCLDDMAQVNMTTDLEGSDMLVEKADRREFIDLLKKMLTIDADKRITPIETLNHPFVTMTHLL
CLK1, sequence (P49759 141-484): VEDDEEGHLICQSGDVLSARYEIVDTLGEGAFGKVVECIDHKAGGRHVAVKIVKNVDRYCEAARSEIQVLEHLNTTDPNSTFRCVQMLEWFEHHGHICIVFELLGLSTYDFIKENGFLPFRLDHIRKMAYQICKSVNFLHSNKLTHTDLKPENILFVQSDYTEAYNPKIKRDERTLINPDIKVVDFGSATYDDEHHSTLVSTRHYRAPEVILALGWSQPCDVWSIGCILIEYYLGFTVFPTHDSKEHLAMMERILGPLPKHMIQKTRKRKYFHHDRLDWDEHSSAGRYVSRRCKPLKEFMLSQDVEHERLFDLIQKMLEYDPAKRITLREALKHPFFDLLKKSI

SMILES | Residual activity (% of control) DYRK1A (DYRK1A) | Residual activity (% of control) DYRK2 (DYRK2) | Residual activity (% of control) DYRK1B (DYRK1B) | Residual activity (% of control) HIPK2 (HIPK2) | Residual activity (% of control) CLK1 (CLK1) | viability at 3 days, 1 µM (Cell viability XTT assay [1]; 1 μM) | viability at 3 days, 3 µM (Cell viability XTT assay [1]; 3 μM) | viability at 3 days, 10 µM (Cell viability XTT assay [1]; 10 μM) | viability at 3 days, 1 µM (Cell viability XTT assay [2]; 1 μM) | viability at 3 days, 3 µM (Cell viability XTT assay [2]; 3 μM) | viability at 3 days, 10 µM (Cell viability XTT assay [2]; 10 μM) | viability at 3 days, 1 µM (Cell viability XTT assay [3]; PC12, 1 μM) | viability at 3 days, 3 µM (Cell viability XTT assay [3]; PC12, 3 μM) | viability at 3 days, 10 µM (Cell viability XTT assay [3]; PC12, 10 μM)
COc1ccc2c(c1)[nH]c1c(/C=C/c3ccccc3)nccc12 [AnnH18_5] | 27 % of control | 51 % of control | 50 % of control | 95 % of control | 58 % of control |  |  |  |  |  |  |  |  | 
COc1ccc2c(c1)[nH]c1c(Cl)nccc12 [AnnH24] |  | 63 % of control | 44 % of control | 91 % of control | 17 % of control | 97% | 96% | 72% | 75% | 66% | 45% | 95% | 90% | 81%
COc1ccc2c3ccnc(C)c3n(CCC#N)c2c1 [AnnH42] | 22 % of control | 81 % of control | 43 % of control | 96 % of control | 44 % of control |  |  |  |  |  |  |  |  | 
C#CCn1c2c(C)nccc2c2ccc(Cl)c(Cl)c21 [AnnH67] | 17 % of control | 100 % of control | 59 % of control | 74 % of control | 34 % of control |  |  |  |  |  |  |  |  | 
Cc1nccc2c3ccc(Cl)c(Cl)c3n(CC#N)c12 [AnnH69] | 17 % of control | 61 % of control | 60 % of control | 33 % of control | 33 % of control |  |  |  |  |  |  |  |  | 
